Measured values: US8188098B2, “GPR119 receptor agonists” (Hoffmann-La Roche Inc., priority 2008, dated 2012)

target: T1, GPR119 receptor (Mesocricetus auratus, UniProt A0A1U8CD06); assay: cAMP assay in HIT-T15 hamster pancreatic islet cells (functional agonist activity); format: cell-based; conditions: HIT-T15 cells endogenously expressing GPR119; 30 min at 25° C.; intracellular cAMP
T1 construct: which endogenously express the GPR119 receptor; host or cells: HIT-T15 hamster pancreatic islet cells
T1 sequence (A0A1U8CD06 1-334): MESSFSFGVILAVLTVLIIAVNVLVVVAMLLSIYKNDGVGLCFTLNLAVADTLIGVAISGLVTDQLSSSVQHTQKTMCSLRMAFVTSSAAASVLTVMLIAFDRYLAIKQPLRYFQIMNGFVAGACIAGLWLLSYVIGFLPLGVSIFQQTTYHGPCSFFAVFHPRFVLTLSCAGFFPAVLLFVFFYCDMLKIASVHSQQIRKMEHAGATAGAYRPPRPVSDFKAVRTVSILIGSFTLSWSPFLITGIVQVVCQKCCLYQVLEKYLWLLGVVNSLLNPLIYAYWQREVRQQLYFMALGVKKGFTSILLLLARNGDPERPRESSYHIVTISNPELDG
How it was run: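 cAMP immunoassay with luminescent read-out, EC50 fitted, after a 30 min, 25° C agonist incubation in HIT-T15 hamster islet cells expressing GPR119 natively. Medium contained 0.5 mM IBMX and 0.5 mg/ml BSA; 9000 cells/well.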

| Structure (SMILES) | EC50 |
| --- | --- |
| CC(C)(C)OC(=O)N1CCC(n2ncc3c(Oc4ccc(-c5ccsc5)cc4)ncnc32)CC1 [Example 86, 4-[4-(4-Thiophen-3-yl-phenoxy)-pyrazolo[3,4-d]pyrimidin-1-yl]-piperidine-1-carboxylic acid tert-butyl ester] | 0.49 µM |
| CC(C)(C)OC(=O)N1CCC(n2ncc3c(Oc4ccc5c(c4)C=CS5(=O)=O)ncnc32)CC1 [Example 78, 4-[4-(1,1-Dioxo-1H-1λ^6-benzo[b]thiophen-5-yloxy)-pyrazolo[3,4-d]pyrimidin-1-yl]-piperidine-1-carboxylic acid tert-butyl ester] | 0.75 µM |
| CS(=O)(=O)c1ccc(Oc2ncnc3c2cnn3C2CCN(Cc3cccc(Cl)c3)CC2)cc1 [Example 158, 1-[1-(3-Chloro-benzyl)-piperidin-4-yl]-4-(4-methanesulfonyl-phenoxy)-1H-pyrazolo[3,4-d]pyrimidine] | 0.28 µM |
| Cc1cc(C(=O)N2CCC(n3ncc4c(Oc5ccc(S(C)(=O)=O)cc5)ncnc43)CC2)no1 [Example 153, {4-[4-(4-Methanesulfonyl-phenoxy)-pyrazolo[3,4-d]pyrimidin-1-yl]-piperidin-1-yl}-(5-methyl-isoxazol-3-yl)-methanone] | 4.4 µM |
| CS(=O)(=O)c1ccc(Oc2ncnc3c2cnn3C2CCN(C(=O)CC3CCCCC3)CC2)cc1 [Example 145, 2-Cyclohexyl-1-{4-[4-(4-methanesulfonyl-phenoxy)-pyrazolo[3,4-d]pyrimidin-1-yl]-piperidin-1-yl}-ethanone] | 0.58 µM |
| Cc1ncccc1Oc1ncnc2c1cnn2C1CCN(C(=O)OC2CCCCC2)CC1 [Example 125, 4-[4-(2-Methyl-pyridin-3-yloxy)-pyrazolo[3,4-d]pyrimidin-1-yl]-piperidine-1-carboxylic acid cyclohexyl ester] | 0.57 µM |
| CCOc1ccc(Oc2ncnc3c2cnn3C2CCN(C(=O)C3CCCC3)CC2)c(F)c1 [Example 147, Cyclopentyl-{4-[4-(4-ethoxy-2-fluoro-phenoxy)-pyrazolo[3,4-d]pyrimidin-1-yl]-piperidin-1-yl}-methanone] | 0.26 µM |
| CC(C)C(=O)N1CCC(n2ncc3c(Oc4ccc(S(C)(=O)=O)cc4)ncnc32)CC1 [Example 136, 1-{4-[4-(4-Methanesulfonyl-phenoxy)-pyrazolo[3,4-d]pyrimidin-1-yl]-piperidin-1-yl}-2-methyl-propan-1-one] | 0.99 µM |
| CCc1cc(Oc2ncnc3c2cnn3C2CCN(C(=O)OC(C)(C)C)CC2)nc(C)n1 [Example 103, 4-[4-(6-Ethyl-2-methyl-pyrimidin-4-yloxy)-pyrazolo[3,4-d]pyrimidin-1-yl]-piperidine-1-carboxylic acid tert-butyl ester] | 3.4 µM |
| CC(C)OC(=O)N1CCC(n2ncc3c(Oc4c(C#N)ccc(F)c4F)ncnc32)CC1 [Example 20, 4-[4-(6-Cyano-2,3-difluoro-phenoxy)-pyrazolo[3,4-d]pyrimidin-1-yl]-piperidine-1-carboxylic acid isopropyl ester] | 0.57 µM |
| Cc1nc(S(C)(=O)=O)ccc1Oc1ncnc2c1cnn2C1CCN(C(=O)OC(C)C)CC1 [Example 29, 4-[4-(6-Methanesulfonyl-2-methyl-pyridin-3-yloxy)-pyrazolo[3,4-d]pyrimidin-1-yl]-piperidine-1-carboxylic acid isopropyl ester] | 0.14 µM |
| CCCCOC(=O)N1CCC(n2ncc3c(Oc4cccnc4C)ncnc32)CC1 [Example 104, 4-[4-(2-Methyl-pyridin-3-yloxy)-pyrazolo[3,4-d]pyrimidin-1-yl]-piperidine-1-carboxylic acid butyl ester] | 0.85 µM |
| CS(=O)(=O)c1ccc(Oc2ncnc3c2cnn3C2CCN(Cc3ccccc3O)CC2)cc1 [Example 164, 2-{4-[4-(4-Methanesulfonyl-phenoxy)-pyrazolo[3,4-d]pyrimidin-1-yl]-piperidin-1-ylmethyl}-phenol] | 0.36 µM |
| CC(C)(C)OC(=O)N1CCC(n2ncc3c(Oc4ccccc4C#N)nc(N)nc32)CC1 [Example 174, 4-[6-Amino-4-(2-cyano-phenoxy)-pyrazolo[3,4-d]pyrimidin-1-yl]-piperidine-1-carboxylic acid tert-butyl ester] | 3.4 µM |
| CC(C)(C)OC(=O)N1CCC(n2ncc3c(Oc4cc(F)c(F)cc4F)ncnc32)CC1 [Example 35, 4-[4-(2,4,5-Trifluoro-phenoxy)-pyrazolo[3,4-d]pyrimidin-1-yl]-piperidine-1-carboxylic acid tert-butyl ester] | 0.088 µM |
| CS(=O)(=O)c1ccc(Oc2ncnc3c2cnn3C2CCN(C(=O)c3cccs3)CC2)cc1 [Example 155, {4-[4-(4-Methanesulfonyl-phenoxy)-pyrazolo[3,4-d]pyrimidin-1-yl]-piperidin-1-yl}-thiophen-2-yl-methanone] | 1.6 µM |
| CC(C)(C)OC(=O)N1CCC(n2ncc3c(Oc4cncc(Cl)c4)ncnc32)CC1 [Example 100, 4-[4-(5-Chloro-pyridin-3-yloxy)-pyrazolo[3,4-d]pyrimidin-1-yl]-piperidine-1-carboxylic acid tert-butyl ester] | 1.8 µM |
| CC(C)Cc1cc(C(=O)N2CCC(n3ncc4c(Oc5ccc(S(C)(=O)=O)cc5)ncnc43)CC2)no1 [Example 154, (5-Isobutyl-isoxazol-3-yl)-{4-[4-(4-methanesulfonyl-phenoxy)-pyrazolo[3,4-d]pyrimidin-1-yl]-piperidin-1-yl}-methanone] | 0.36 µM |
| CS(=O)(=O)c1ccc(Oc2ncnc3c2cnn3C2CCN(C(=O)c3ccccc3)CC2)cc1 [Example 149, {4-[4-(4-Methanesulfonyl-phenoxy)-pyrazolo[3,4-d]pyrimidin-1-yl]-piperidin-1-yl}-phenylmethanone] | 1.7 µM |
| CC(C)(C)OC(=O)N1CCC(n2ncc3c(Oc4ccc(F)cc4)ncnc32)CC1 [Example 34, 4-[4-(4-Fluoro-phenoxy)-pyrazolo[3,4-d]pyrimidin-1-yl]-piperidine-1-carboxylic acid tert-butyl ester] | 0.53 µM |
| CC(C)(C)OC(=O)N1CCCC(n2ncc3c(Oc4ccc(S(C)(=O)=O)cc4)ncnc32)C1 (single isomer, unassigned) [Example 89] | 0.21 µM |
| CC(C)(C)OC(=O)N1CCC(n2ncc3c(Oc4ccc(S(C)(=O)=O)cc4)ncnc32)CC1 [Example 59, 4-[4-(4-Methanesulfonyl-phenoxy)-pyrazolo[3,4-d]pyrimidin-1-yl]-piperidine-1-carboxylic acid tert-butyl ester] | 0.043 µM |
| CC(C)CCC(=O)N1CCC(n2ncc3c(Oc4ccc(S(C)(=O)=O)cc4)ncnc32)CC1 [Example 143, 1-{4-[4-(4-Methanesulfonyl-phenoxy)-pyrazolo[3,4-d]pyrimidin-1-yl]-piperidin-1-yl}-4-methylpentan-1-one] | 0.44 µM |
| Cc1ncccc1Oc1ncnc2c1cnn2C1CCN(C(=O)OCC(C)C)CC1 [Example 107, 4-[4-(2-Methyl-pyridin-3-yloxy)-pyrazolo[3,4-d]pyrimidin-1-yl]-piperidine-1-carboxylic acid isobutyl ester] | 0.19 µM |
| CC(C)(C)OC(=O)N1CCC(n2ncc3c(Nc4ccc(S(C)(=O)=O)cc4)ncnc32)CC1 [Example 5, 4-[4-(4-Methanesulfonyl-phenylamino)-pyrazolo[3,4-d]pyrimidin-1-yl]-piperidine-1-carboxylic acid tert-butyl ester] | 1.5 µM |
